From patent US20030190325A1, “Novel peroxiredoxin defense system from mycobacterium tuberculosis” (priority 2002, published 2003)
Read-outs that look alike come from different tables or passages of the source.

Columns and labels:
Lpd, SucB, AhpD = biological target: T1, Lpd, SucB, AhpD (Mycobacterium tuberculosis, UniProt P9WHH9+P9WIS7+P9WQB5); assay: DTNB screening assay (Lpd/SucB/AhpD protein mixture); format: biochemical; details: for Target: which of the 3 enzymes (AhpD, Lpd, SucB) is inhibited, and mode of inhibition
T1 construct: Lpd and SucB ORFs were amplified by PCR from M. tuberculosis H37Rv genomic DNA; The AhpD open reading frame (ORF) was amplified by PCR with engineered 5′ NdeI and 3′ NheI sites and cloned into pET11c; made in house; host or cells: E. coli BL21(DE3), pET11c
T1 sequence (P9WHH9 1-464): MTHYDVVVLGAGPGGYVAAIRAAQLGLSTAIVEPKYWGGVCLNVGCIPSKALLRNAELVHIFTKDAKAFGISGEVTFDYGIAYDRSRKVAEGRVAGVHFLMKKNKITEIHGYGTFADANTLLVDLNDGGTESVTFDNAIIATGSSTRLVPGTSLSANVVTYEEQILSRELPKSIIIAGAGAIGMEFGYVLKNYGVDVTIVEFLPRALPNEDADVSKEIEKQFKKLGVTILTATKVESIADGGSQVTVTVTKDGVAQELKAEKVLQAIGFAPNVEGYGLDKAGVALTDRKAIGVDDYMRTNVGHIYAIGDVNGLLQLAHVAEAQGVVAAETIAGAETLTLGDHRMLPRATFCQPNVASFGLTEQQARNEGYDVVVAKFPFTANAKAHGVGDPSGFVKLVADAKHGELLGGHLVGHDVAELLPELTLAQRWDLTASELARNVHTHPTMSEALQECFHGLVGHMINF
T1 sequence (P9WIS7 1-553): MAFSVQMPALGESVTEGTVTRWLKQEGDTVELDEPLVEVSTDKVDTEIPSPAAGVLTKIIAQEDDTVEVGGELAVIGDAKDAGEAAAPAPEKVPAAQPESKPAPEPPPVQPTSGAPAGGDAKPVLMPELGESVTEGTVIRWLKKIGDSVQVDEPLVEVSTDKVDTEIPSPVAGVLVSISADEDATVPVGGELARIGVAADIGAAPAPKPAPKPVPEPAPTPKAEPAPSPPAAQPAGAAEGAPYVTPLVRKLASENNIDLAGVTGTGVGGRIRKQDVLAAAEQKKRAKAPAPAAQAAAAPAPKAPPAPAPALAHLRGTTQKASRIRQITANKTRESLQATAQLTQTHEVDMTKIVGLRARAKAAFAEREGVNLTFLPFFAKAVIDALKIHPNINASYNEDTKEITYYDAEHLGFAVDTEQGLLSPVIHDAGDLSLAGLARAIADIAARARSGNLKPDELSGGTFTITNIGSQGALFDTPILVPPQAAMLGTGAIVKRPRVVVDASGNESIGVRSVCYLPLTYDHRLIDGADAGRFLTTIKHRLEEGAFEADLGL
T1 sequence (P9WQB5 1-177): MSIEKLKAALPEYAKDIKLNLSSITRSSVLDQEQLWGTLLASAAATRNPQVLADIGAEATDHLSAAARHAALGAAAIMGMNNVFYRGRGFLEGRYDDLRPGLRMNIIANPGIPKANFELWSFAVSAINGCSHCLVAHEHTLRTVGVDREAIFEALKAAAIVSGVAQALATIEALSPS
Protocol: The screen was performed in Falcon Microtest 384-well 30 μl assay plates using the DTNB (5,5′-dithiobis-(2-nitrobenzoic acid)) assay.
The protein mixture (200 nM Lpd, 350 nM SucB, 36 nM AhpD) was dispensed into each well in 10 μl using a multi-channel pump dispenser. Compounds were added to the protein mix by a single dip (1 nl) with a pin-transfer robot. Plates with the protein mix and added compounds were incubated on a shaker for 30 min at room temperature. The concentration of compounds during incubation was 50 μM. Reaction mixture (200 μM NADH, 150 μM DTNB in 100 mM potassium phosphate, pH 7.0, 2 mM EDTA) was added to each well in 10 μl after pre-incubation and the plate was read at 405 nm for “time 0 min” values. Plates were incubated on a shaker for 30 min at room temperature to complete the reaction and were read at 405 nm for “time 30 min.” “Time 0 min” values were subtracted from “time 30 min” values and were taken as an end-point value for the assay. Control wells contained only protein and reaction mixtures without any compounds added and were taken as 100% activity values. The final concentrations of all components during the reaction were as follows: Lpd, 100 nM; SucB, 175 nM; AhpD, 18 nM; NADH, 100 μM; DTNB, 75 μM; potassium phosphate, 50 mM; EDTA, 1 mM; compounds, 25 μM.

AhpD = biological target: T2, AhpD (Mycobacterium tuberculosis, UniProt P9WQB5); assay: Inhibition constant for the enzyme identified as target: AhpD; format: biochemical
T2 construct: The AhpD open reading frame (ORF) was amplified by PCR with engineered 5′ NdeI and 3′ NheI sites and cloned into pET11c; made in house; host or cells: E. coli BL21(DE3), pET11c
T2 sequence (P9WQB5 1-177): T1 sequence (P9WQB5 1-177)

SMILES	IC50 (Lpd, SucB, AhpD; DTNB assay, 100 nM Lpd, 175 nM SucB, 18 nM AhpD, 100 μM NADH, 75 μM DTNB, pH 7.0, read-out: IC50) [µM]	IC50 (Lpd, SucB, AhpD) [µM]	Target (Lpd, SucB, AhpD)	Ki (AhpD) [µM]
O=C(O)c1ccc(N2C(=O)/C(=C/c3ccc(-c4ccc(Br)cc4)o3)C=C2c2ccccc2)cc1 [2150-0146]	4.2	–	–	–
Cc1cc(C)cc(/N=C2/NC(=O)/C(=C\c3cc(Br)c(O)c([N+](=O)O)c3)S2)c1 [2368-0687]	–	10.5	AhpD (Com- pet Inhib.)	5
O=C(O)CCN1C(=O)/C(=C\c2ccc(-c3cccc(C(F)(F)F)c3)o2)SC1=S [2556-0286]	–	4.4	SucB (Com- pet Inhib.)	–
O=C(O)CN1C(=O)/C(=C\c2ccc(-c3cccc(Cl)c3Cl)o2)SC1=S [3229-2113]	–	8.2	SucB (Com- pet Inhib.)	–
